Experimental data published in PMC6149949, “Synthesis and Evaluation of Thiochroman-4-One Derivatives as Potential Leishmanicidal Agents” (Molecules : A Journal of Synthetic Chemistry and Natural …, 2017).

Assays:
[1] = system: intracellular amastigotes of Leishmania panamensis (MHOM/CO/87/UA140-EGFP strain); assay: In vitro antileishmanial activity on intracellular amastigotes (GFP, flow cytometry); format: cell-based; conditions: for SI (index of selectivity, IS = LC50/EC50): LC50 U-937 / EC50 L. panamensis amastigotes; for EC50: intracellular amastigotes of L. panamensis in U-937 cells, 72 h, mean ± SD
Experimental: Antileishmanial activity of compounds was determined according to the ability of the compound to reduce the infection by L. panamensis parasites. For this, the antileishmanial activity was tested on intracellular amastigotes of L. panamensis transfected with the green fluorescent protein gene (MHOM/CO/87/UA140-EGFP strain). Briefly, U-937 human cells at a density of 3 × 10^5 cells/mL in RPMI 1640 and 0.1 μg/mL of PMA (phorbol-12-myristate-13-acetate) were dispensed on 24-wells microplate and then infected with stationary phase growing L. panamensis promastigotes in 15:1 parasites per cell ratio. Plates were incubated at 34 °C and 5% CO2 for 3 h and then cells were washed twice with phosphate buffer solution (PBS) to eliminate not internalized parasites. Fresh RPMI-1640 was added into each well (1 mL) and plates were incubated again. After 24 h of infection, the RPMI-1640 medium was replaced by fresh culture medium containing each compound at four serial dilutions (50, 12.5, 3.125 and 0.78 μg/mL) and plates were then incubated at 37 °C and 5% CO2 during 72 h, then, cells were removed from the bottom plate with 100 μL of EDTA/Trypsin (250 mg) solution. The cells were centrifuged at 1100 rpm during 10 min at 4 °C, the supernatant was discarded and cells were washed with 1 mL of cold PBS and centrifuged at 1100 rpm for 10 min at 4 °C. Cells were washed two times employing PBS, as previously, and after the last wash, the supernatant was discarded and cells were suspended in 500 μL of PBS.
Cells were analyzed by flow cytometry employing a flow cytometer (cytomics FC 500MPL, Beckman Coulter. Pasadena, CA, USA) reading at 488 nm (exciting) and 525 nm (emitting) over an argon laser and counting 10,000 events. Infected cells were determined according the events for green fluorescence (parasites). All determinations for each compound and standard drug were carried out by triplicate, in two experiments. Infected cells exposed to control drug (amphotericin B) were used as control for antileishmanial activity (positive control) while infected cells incubated in absence of any compound or drug were used as control for infection (negative control). Nonspecific fluorescence was corrected by subtracting fluorescence of unstained cells. Determinations were done by triplicate in at least two independent experiments.
Antileishmanial activity was determined according reduction of percentage of fluorescent parasites determined according to the median fluorescence intensity (MFI), obtained for each experimental condition by cytometry. The parasite values for each concentration of compound were calculated by Equation (3), where the % of parasites in the control well, corresponds to 100% of parasites. % parasites = (MFI exposed parasites/MFI unexposed parasites) × 100(3)
Then, inhibition percentage was calculated with Equation (4):% inhibition of parasites = 100 − (% parasites)(4)
Results of antileishmanial activities were expressed as the median effective concentrations (EC50) measured by Probit method.

[2] = in vitro; conditions: human
Experimental: Cytotoxicity of the compounds was evaluated over human monocytes (U-937 ATCC CRL-1593.2) in exponential growing phase and, adjusted at 1 × 10^5 cells/mL in RPMI-1640 enriched with 10% fetal bovine serum (FBS). One hundred microliters of cell suspension were dispensed in each well of a 96-wells microplate and then, 100 μL of each compound or standard drug (amphotericin B) at four serial dilution concentrations (200, 50, 12.5 and 3.125 μg/mL) were added dissolved in pbs with 0.5% DMSO. Cell exposed to compounds or standard drugs were incubated 72 h at 37 °C and 5% of CO2. Cytotoxic activity of each compound was determined according to the effect on the cell viability by the MTT microenzymatic method in which 3-(4,5-dimethylthiazol-2-yl)- 2,5-diphenyltetrazolium bromide is reduced to a purple product named formazan by mitochondrial enzyme succinate dehydrogenase. Thus, 10 μL/well of MTT solution (5 mg/mL) were added to each well of exposed and unexposed cells, and plates were incubated at 37 °C, 5% CO2 during 3 h. The reaction was stopped by adding 100 μL/well of isopropanol with 50% and 10% of SDS (sodium dodecyl sulfate). The concentration of formazan was determined spectrophotometrically at 570 nm (Varioskan Flash Multimode Reader, Thermo Scientific, Waltham, MA, USA) and intensity of color (absorbance) was registered as O.D. Cells exposed to control drug (amphotericin B) were used as control for toxicity (positive control) while cell incubated in absence of any compound or drug were used as control for viability (negative control). Non-specific absorbance was corrected by subtracting absorbance (O.D) of the blank. Determinations were done by triplicate in at least two independent experiments.
Cytotoxicity was determined according to viability and mortality percentages obtained for each experimental condition (synthetized compounds, amphotericin B and culture medium). Results were expressed as the mean lethal concentrations (LC50), concentration necessary to kill 50% of cells, calculated by the parametric method of linear regression that permits doses-response analysis (Probit analysis).
Initially, viability percentages were calculated by Equation (1), where the O.D of control well, corresponds to 100% of viability. % viability = (O.D exposed cells/O.D unexposed cells) × 100(1)
Then, the percentage of cell growth inhibition was calculated using Equation (2):% inhibition = 100 − (% Viability)(2)
The toxicity was defined according to LC50 values, using the follow scale: Toxic; LC50 < 100 μM; moderately toxic; LC50 > 100 μM and <200 μM and potentially nontoxic; LC50 > 200 μM.

[3] = Leishmania panamensis, U-937, 72 h

Compound | SI (index of selectivity, IS = LC50/EC50) [1] | EC50 [1, 3] [µM] | EC50 [1] [µM] | CC50 at 72 h [2] [µM]
O=C1C=C(c2ccccc2)S(=O)(=O)c2ccccc21 [Compound 4h, 2-Phenyl-4H-thiochromen-4-one 1,1-dioxide] | >97.94 | < 10 | 7.56 ± 0.33 | > 740
O=C1C=C(c2ccc(C(F)(F)F)cc2)S(=O)(=O)c2ccccc21 [Compound 4i, 2-(4-(Trifluoromethyl)-phenyl)-4H-thiochromen-4-one 1,1-dioxide] | >80.97 | < 10 | 7.3 ± 1.6 | > 591
O=C1C=C(c2ccc(Cl)cc2)S(=O)(=O)c2ccccc21 [Compound 4k, 2-(4-Chlorophenyl)-4H-thiochromen-4-one 1,1-dioxide] | >87.70 | < 10 | 7.47 ± 0.75 | > 656
O=C1C=C(c2ccc(F)cc2)S(=O)(=O)c2ccccc21 [Compound 4l, 2-(4-Fluorophenyl)-4H-thiochromen-4-one 1,1-dioxide] |  | < 10 | 6.72 ± 0.16 | > 694
O=C1C=C(c2ccc([N+](=O)[O-])cc2)S(=O)(=O)c2ccccc21 [Compound 4m, 2-(4-Nitrophenyl)-4H-thiochromen-4-one 1,1-dioxide] | >87.70 | < 10 | 7.23 ± 0.44 | > 634
